# Measurements: patent publication US7511074B2, “Tetrafluorobenzyl derivatives and pharmaceutical composition for preventing and treating acute and chronic neurodegenerative diseases in central nervous system containing the same” (AmKor Pharma, Inc., priority 2002, dated 2009)
# System: not given
# Assay: not given
# Settings: not given
row,SMILES,melting point [°C]
1,"Cc1c(F)c(F)c(CNc2ccc(O)c(C(=O)O)c2)c(F)c1F [Synthesis Example 5, 2-hydroxy-5-(2,3,5,6-tetrafluoro-4-methylbenzylamino)benzoic acid]",212
2,"O=C(O)c1cc(NCc2c(F)c(F)c(C(F)(F)F)c(F)c2F)ccc1OC(F)(F)F [Synthesis Example 8, 5-(2,3,5,6-tetrafluoro-4-trifluoromethylbenzylamino)-2-trifluoromethoxybenzoic acid]",38
3,"O=[N+]([O-])c1cc(NCc2c(F)c(F)c(C(F)(F)F)c(F)c2F)ccc1O [Synthesis Example 9, 2-nitro-4-(2,3,5,6-tetrafluoro-4-trifluoromethylbenzylamino)phenol]",126 to 128
4,"Cc1ccc(NCc2c(F)c(F)c(C(F)(F)F)c(F)c2F)cc1C(=O)O [Synthesis Example 6, 2-methyl-5-(2,3,5,6-tetrafluoro-4-trifluoromethylbenzylamino)benzoic acid]",84
5,"O=C(O)c1cc(NCc2c(F)c(F)c(C(F)(F)F)c(F)c2F)ccc1Cl [Synthesis Example 3, 2-chloro-5-(2,3,5,6-tetrafluoro-4-trifluoromethylbenzylamino)benzoic acid]",58
6,"COc1ccc(NCc2c(F)c(F)c(C(F)(F)F)c(F)c2F)cc1C(=O)O [Synthesis Example 7, 2-methoxy-5-(2,3,5,6-tetrafluoro-4-trifluoromethylbenzylamino)benzoic acid]",94
7,"O=C(O)c1cc(NCc2c(F)c(F)c(C(F)(F)F)c(F)c2F)ccc1[N+](=O)[O-] [Synthesis Example 2, 2-nitro-5-(2,3,5,6-tetrafluoro-4-trifluoromethylbenzylamino)benzoic acid]",121
8,"O=C(O)c1cc(NCc2c(F)c(F)c(C(F)(F)F)c(F)c2F)ccc1Br [Synthesis Example 4, 2-bromo-5-(2,3,5,6-tetrafluoro-4-trifluoromethylbenzylamino)benzoic acid]",70
9,"COC(=O)c1cc(NCc2c(F)c(F)c(C(F)(F)F)c(F)c2F)ccc1O [Synthesis Example 13, methyl 2-hydroxy-5-(2,3,5,6-tetrafluoro-4-trifluoromethylbenzylamino)benzoate]",127

# System: Mouse cortical cell cultures
# Assay: SNP (sodium nitroprusside) cytotoxicity in mixed cortical cell cultures (LDH assay)
# Format: cell-based
# Settings: continuous 5 μM SNP; LDH 24 hr later
# Method: (§1) Mouse cortical cell cultures (DIV 12-14) were exposed to continuously 5 μM sodium nitroprusside (SNP), alone (●) or with inclusion of 0.1-10 mM aspirin (◯), 1-100 μM trolox (▾), or 0.1-10 μM 2-Hydroxy-TTBA (∇). Neuronal death was analyzed 24 hr later by measuring levels of LDH released into the bathing medium, mean ±SEM (n=9-12 culture wells per condition), scaled to mean LDH efflux value 24 hr after sham wash (=0) and continuous exposure to 500 μM NMDA (=100). *, Significant difference from the vehicle control, p<0.05 using ANOVA and Student-Neuman-Keuls' test.
# (§2) For mixed neuron-glia culture, mouse cerebral cortices were removed from brains of the 14-16 day-old-fetal mice (E14-16), gently triturated and plated on 24 well plates (2×10^5 cells/plate) precoated with 100 μg/ml poly-D-lysine and 4 μg/ml laminine. Cultures were maintained at 37° C. in a humidified 5% CO2 atmosphere. Plating media consist of Eagles minimal essential media (MEM, Earles salts, supplied glutamine-free) supplemented with 5% horse serum, 5% fetal bovine serum, 26.5 mM bicarbonate, 2 mM glutamine, and 21 mM glucose.
# (§3) After 7-8 days in vitro (DIV 7-8), 10 μM cytosine arabinofuranoside (Ara-C) was included to halt overgrowth of glia. The drug treatment was carried on DIV 12-15 cortical cell culture. Overall neuronal cell injury was assessed by measuring amount of lactate dehydrogenase (LDH) released into the bathing medium 24 hr after neurotoxic insults as previously described [Koh and Choi, J Neurosci Methods 20:83-90, 1987].
# Mixed cortical cell cultures were continuously exposed to 5 μM SNP, a nitric oxide (NO) donor, alone or with inclusion of 0.1-10 μM 2-Hydroxy-TTBA, 1-10 μM trolox or 100-10,000 μM aspirin. Neuronal cell death was analyzed 24 hr later by LDH assay. *, Significant difference from the vehicle control (SNP), p<0.05 using ANOVA and Student-Neuman-Keuls' test.
row,SMILES,effect on SNP toxicity
1,"CC(=O)Oc1ccccc1C(=O)O [Aspirin, aspirin, reference compound]",did not reduce SNP cytotoxicity
2,"Cc1c(C)c2c(c(C)c1O)CCC(C)(C(=O)O)O2 (stereo not drawn) [trolox, reference compound]",completely blocked

# System: Mouse cortical cell cultures
# Assay: FeCl2-induced free radical neurotoxicity in mixed cortical cell cultures (LDH assay)
# Format: cell-based
# Settings: continuous 50 μM FeCl2; 1-30 μM; LDH 24 hr later
# Method: as §1, with “continuously to 50” for “continuously 5”, “μM Fe^2+,” for “μM sodium nitroprusside (SNP),”, “alone” for “alone (●)”, “of 0.1-100” for “of 0.1-10 mM aspirin (◯), 1-100 μM trolox (▾), or 0.1-10”, “2-Hydroxy-TTBA (●) or trolox (◯), a membrane-permeable form of vitamin E).” for “2-Hydroxy-TTBA (∇).”
# Mouse cortical cell cultures (DIV 12-14) were exposed to continuously to 50 μM Fe^2+, alone (♦) or with inclusion of 1-30 μM 2-Hydroxy-TTS (●), 2-Hydroxy-TTA (◯), 2-Chloro-TTP (▾), 2-Ethan-TTBA (∇), 2-Propan-TTBA (▪), or 2-Cyclohexan-TTBA (□). Neuronal death was analyzed 24 hr later by measuring levels of LDH released into the bathing medium, mean ±SEM (n=9-12 culture wells per condition), scaled to mean LDH efflux value 24 hr after sham wash (=0) and continuous exposure to 500 μM NMDA (=100). *, Significant difference from the vehicle control, p<0.05 using ANOVA and Student-Neuman-Keuls' test.
# as §2, §3
# Mixed cortical cell cultures (DIV 13-15) were continuously exposed to 50 μM FeCl2, which produces hydroxyl radical via a Fenton reaction, alone or with inclusion of 2-Hydroxy-TTBA, 2-Hydroxy-TTA, 2-Hydroxy-TTS, 2-Chloro-TTP, 2-Ethan-TTBA, 2-Propan-TTBA, 2-Cyclohexan-TTBA or trolox (a vitamin E analogue) at indicated doses. Neuronal cell death was analyzed 24 hr later by LDH assay as described above. *, Significant difference from the vehicle control (FeCl2), p<0.05 using ANOVA and Student-Neuman-Keuls' test.
row,SMILES,neuroprotective effect compared with trolox against FeCl2-induced free radical neurotoxicity
1,"Oc1ccc(NCc2c(F)c(F)c(C(F)(F)F)c(F)c2F)cc1Cl [2-Chloro-TTP, 2-chloro-4-(2,3,5,6-tetrafluoro-4-trifluoromethylbenzylamino)phenol]",much stronger neuroprotective effects than trolox
2,"CC(=O)Oc1ccc(NCc2c(F)c(F)c(C(F)(F)F)c(F)c2F)cc1C(=O)O [2-Ethan-TTBA, 2-ethanoyloxy-5-(2,3,5,6-tetrafluoro-4-trifluoromethylbenzylamino)benzoic acid]",much stronger neuroprotective effects than trolox
3,"CCC(=O)Oc1ccc(NCc2c(F)c(F)c(C(F)(F)F)c(F)c2F)cc1C(=O)O [2-Propan-TTBA, 2-propanoyloxy-5-(2,3,5,6-tetrafluoro-4-trifluoromethylbenzylamino)benzoic acid]",much stronger neuroprotective effects than trolox
4,"O=S(=O)(O)c1cc(NCc2c(F)c(F)c(C(F)(F)F)c(F)c2F)ccc1O [2-Hydroxy-TTS, 2-hydroxy-5-(2,3,5,6-tetrafluoro-4-trifluoromethylbenzylamino)benzene sulfonic acid]",much stronger neuroprotective effects than trolox
5,"O=C(O)c1cc(NCc2c(F)c(F)c(C(F)(F)F)c(F)c2F)ccc1OC(=O)C1CCCCC1 [2-Cyclohexan-TTBA, 2-cyclohexanecarbonyloxy-5-(2,3,5,6-tetrafluoro-4-trifluoromethylbenzylamino)benzoic acid]",much stronger neuroprotective effects than trolox
6,"NC(=O)c1cc(NCc2c(F)c(F)c(C(F)(F)F)c(F)c2F)ccc1O [2-Hydroxy-TTA, 2-hydroxy-5-(2,3,5,6-tetrafluoro-4-trifluoromethylbenzylamino)benzamide]",much stronger neuroprotective effects than trolox

# Same assay, conditions: continuous 50 μM FeCl2; LDH 24 hr later
row,SMILES,prevention of FeCl2-induced free radical neurotoxicity
1,"Cc1c(C)c2c(c(C)c1O)CCC(C)(C(=O)O)O2 (stereo not drawn) [trolox, reference compound]",prevented FeCl2-induced free radical neurotoxicity in a dose-dependent manner
